From publication PMC3210919 (Biochemistry, 2011)
Several values for one entry are separate records, joined by “and”; a condition that tells them apart may be missing. Equal values may be shown once. Read-outs that look alike come from different tables or passages of the source.

Experiments:
T882A RePC mutant [1] = target: T1, T882A RePC mutant (Rhizobium etli, UniProt Q2K340, T882A)
wild-type RePC [2] = target: T2, wild-type RePC (Rhizobium etli, UniProt Q2K340); format: biochemical; conditions: for % kcat of pyruvate carboxylation: phosphoryl donor varied, 0.25 mM acetyl-CoA
K1119Q RePC mutant [3] = target: T3, K1119Q RePC mutant (Rhizobium etli, UniProt Q2K340, K1119Q)
wild-type RePC [4] = target: T2, wild-type RePC; format: biochemical
wild-type RePC [5] = target: T2, wild-type RePC; assay: HCO3^−-dependent ATPase activity in the absence of pyruvate; format: biochemical
[6] = system: wild-type RePC (pyruvate carboxylase from R. etli); assay: Pyruvate carboxylation activity, malate dehydrogenase coupled assay; format: biochemical, Rhizobium etli; conditions: for Ka acetyl-CoA / Vmax: Hill fit eqn (4)
T882A RePC mutant [7] = target: T1, T882A RePC mutant; remark: listed apart in the source
K1119Q RePC mutant [8] = target: T3, K1119Q RePC mutant; assay: HCO3^−-dependent ATPase reaction, K1119Q mutant; format: biochemical
wild-type RePC [9] = target: T2, wild-type RePC; format: biochemical; remark: listed apart in the source
[10] = wild-type, (+) 10 mM free biotin
[11] = labelled substrate varied, others saturating, pH 7.5, 25° C, 0.25 mM acetyl-CoA
[12] = saturating acetyl-CoA and substrates
[13] = acetyl-CoA varied, 0.5 mM free Mg^2+
[14] = acetyl-CoA varied, 1.0 mM free Mg^2+
[15] = acetyl-CoA varied, 3.0 mM free Mg^2+

## CC(=O)OP(=O)(O)O [Acetyl phosphate]
T882A RePC mutant [1]; (+) 10 mM free biotin
  % wild-type kcat/Km: 40%
  Km: 140 ± 10 µM
  kcat: 0.002 ± 0.00017 s⁻¹
T882A RePC mutant [1]; no free biotin
  % wild-type kcat/Km: 80%
  Km: 220 ± 10 µM
  kcat: 0.005 ± 0.00017 s⁻¹
wild-type RePC [2]; pH 7.5, 25° C
  % kcat of pyruvate carboxylation: 0.1%
wild-type RePC [2]; [10]
  Km: 140 ± 40 µM
  kcat: 0.00483 ± 3.3e-05 s⁻¹
K1119Q RePC mutant [3]; (+) 10 mM free biotin
  % wild-type kcat/Km: 57%
  Km: 370 ± 30 µM
  kcat: 0.00733 ± 0.00017 s⁻¹
K1119Q RePC mutant [3]; no free biotin
  % wild-type kcat/Km: 95%
  Km: 290 ± 10 µM
  kcat: 0.00783 ± 0.00017 s⁻¹

## NC(=O)OP(=O)(O)O [Carbamoyl phosphate]
T882A RePC mutant [1]; (+) 10 mM free biotin
  % wild-type kcat/Km: 920%
T882A RePC mutant [1]; no free biotin
  % wild-type kcat/Km: 750%
wild-type RePC [2]; pH 7.5, 25° C
  % kcat of pyruvate carboxylation: 0.6%
wild-type RePC [2]; wild-type, no free biotin, pH 7.5, 25° C, […] MgADP, 0.25 mM acetyl-CoA (Table 7)
  kcat: 0.04 ± 0.0017 s⁻¹
K1119Q RePC mutant [3]; (+) 10 mM free biotin
  % wild-type kcat/Km: 45%
K1119Q RePC mutant [3]; no free biotin
  % wild-type kcat/Km: 17%

## Nc1ncnc2c1ncn2[C@@H]1O[C@H](COP(=O)(O)OP(=O)(O)O)[C@@H](O)[C@H]1O [MgADP]
wild-type RePC [4]; MgADP varied, pH 7.5, 25° C, 0.25 mM acetyl-CoA
  % kcat of pyruvate carboxylation: 0.2%

## Nc1ncnc2c1ncn2[C@@H]1O[C@H](COP(=O)(O)OP(=O)(O)OP(=O)(O)O)[C@@H](O)[C@H]1O [MgATP]
wild-type RePC [5]; MgATP varied, pH 7.5, 25° C, 0.25 mM acetyl-CoA
  % kcat of pyruvate carboxylation: 0.6%
wild-type RePC [5]; wild-type, no free biotin, pH 7.5, 25° C, 15 mM HCO3^−, 7.5 mM MgCl2, 0.25 mM acetyl-CoA
  kcat: 0.043 ± 0.0015 s⁻¹
[6]; [11]
  Km: 145 ± 9 µM
  kcat: 396 ± 10 ^d min^−1
T882A RePC mutant [7]; (+) 10 mM free biotin
  % wild-type kcat/Km: 260%
T882A RePC mutant [7]; no free biotin
  % wild-type kcat/Km: 225%
  kcat: 0.233 ± 0.033 s⁻¹
K1119Q RePC mutant [8]; (+) 10 mM free biotin
  % wild-type kcat/Km: 40%
K1119Q RePC mutant [8]; no free biotin
  % wild-type kcat/Km: 0.06%
  kcat: 0.00137 ± 1.7e-05 s⁻¹

## [Mg+2] [Mg^2+]
wild-type RePC [5]
  concentration of free Mg^2+ that inhibited MgATP-cleavage: > 7 mM
[6]
  concentration of free Mg^2+ that inhibited pyruvate carboxylation: > 7 mM
[6]; Mg^2+ increased from 0.5 to 3 mM, acetyl-CoA varied
  fold increase in kcat: 4.9 fold
[6]; estimated from replot of apparent 1/Vmax vs. 1/[Mg^2+], pyruvate varied
  Ka for Mg^2+ for the effect on Vmax: ≈ 40 mM
wild-type RePC [2]; up to 11 mM Mg^2+
  inhibition of the MgADP phosphorylation reaction by Mg^2+: no inhibition

## CC(=O)SCCNC(=O)CCNC(=O)[C@H](O)C(C)(C)COP(=O)(O)OP(=O)(O)OC[C@H]1O[C@@H](n2cnc3c(N)ncnc32)[C@H](O)[C@@H]1OP(=O)(O)O [acetyl-CoA, acetyl-coenzyme A, reference compound]
wild-type RePC [5]; MgATP hydrolysis
  decrease in rate caused by lack of acetyl-CoA: 82%
wild-type RePC [5]; [12]
  kcat (specific activity), (+) acetyl-CoA: 0.043 ± 0.0015 s⁻¹
wild-type RePC [5]; saturating substrates
  % rate (−) acetyl-CoA compared to the specific activity in the presence of acetyl-CoA: 22%
[6]; [13]
  n acetyl-CoA (Hill coefficient): 2.0 ± 0.3
  Ka acetyl-CoA: 38 ± 2 µM
  Vmax: 1.16 ± 0.07 µmol/mg/min
[6]; [14]
  n acetyl-CoA (Hill coefficient): 2.8 ± 0.5
  Ka acetyl-CoA: 26 ± 2 µM
  Vmax: 1.39 ± 0.06 µmol/mg/min
[6]; [15]
  n acetyl-CoA (Hill coefficient): 2.6 ± 0.2
  Ka acetyl-CoA: 10 µM and 10.0 ± 0.4 µM
  Vmax: 5.7 ± 0.1 µmol/mg/min
[6]; acetyl-CoA varied, […] free Mg^2+
  Vmax: 2.59 ± 0.08 µmol/mg/min
[6]; addition of 3.0 mM free Mg^2+
  overall fold decrease in the Ka for acetyl-CoA: 3.8 fold
[6]; [12]
  kcat (specific activity), (+) acetyl-CoA: 11.7 ± 0.333 s⁻¹
[6]; saturating substrates
  % rate (−) acetyl-CoA compared to the specific activity in the presence of acetyl-CoA: 9%
wild-type RePC [2]
  effect of acetyl-CoA on the rate of MgADP phosphorylation by carbamoyl phosphate: no effect
wild-type RePC [2]; [12]
  kcat (specific activity), (+) acetyl-CoA: 0.04 ± 0.0017 s⁻¹
wild-type RePC [2]; saturating substrates
  % rate (−) acetyl-CoA compared to the specific activity in the presence of acetyl-CoA: 100%
wild-type RePC [4]; full reverse reaction
  decrease in rate caused by lack of acetyl-CoA: 78%
wild-type RePC [4]; [12]
  kcat (specific activity), (+) acetyl-CoA: 0.0139 ± 8.3e-05 s⁻¹
wild-type RePC [4]; saturating substrates
  % rate (−) acetyl-CoA compared to the specific activity in the presence of acetyl-CoA: 18%
wild-type RePC [9]; [12]
  kcat (specific activity), (+) acetyl-CoA: 0.15 ± 0.00067 s⁻¹
wild-type RePC [9]; saturating substrates
  % rate (−) acetyl-CoA compared to the specific activity in the presence of acetyl-CoA: 67%
